Counter-ions that a name gives are not always drawn.
Key:
[1] = test system: Balb/c mice, diarrhea caused by continuous administration of a chemotherapeutic agent; assay: Relieving effect on diarrhea caused by the continuous administration of a chemotherapeutic agent (Examples 365-384); type: in vivo; conditions: Fluorouracil (5-Fu) intraperitoneal injection 70 mg/kg once a day for 5 days, compound intraperitoneal injection 150 mg/kg single, cycle 9 days
Excerpt: Balb/c mice were fed for 1 week, and then divided into groups. The experiment was divided into a control group, a chemotherapeutic agent group, and a group of the compound as shown in Formula I, each of which comprised 10 mice, to perform the administration experiment, for which the administration dosage, mode, time and frequency were shown in Table 5. The control group: being injected or intragastrically administered with the same solvent as that used in the group of the compound as shown in Formula I (the administration mode and time were shown in Table 5), and then being injected or intragastrically administered with the same solvent as that used in the chemotherapeutic agent group (the administration mode was shown in Table 5); the chemotherapeutic agent group: being injected or intragastrically administered with the same solvent as that used in the group of the compound as shown in Formula I (the administration mode and time were shown in Table 5), and then being injected or intragastrically administered with the chemotherapeutic agent (the type, administration mode, time and dosage were shown in Table 5); the group of the compound as shown in Formula I: being injected or intragastrically administered with the compound as shown in Formula I (the administration mode and time were shown in Table 5), and then being administered with the chemotherapeutic agent (the type, administration mode, time and dosage were shown in Table 5).
(§1) The scoring of diarrhea can refer to the method of Akinobu Kurita (Cancer Chemother Pharmacol 2000; 46:211-20.), Grade 0): normal feces; Grade 1: mild diarrhea, the stools is slightly wet and soft; Grade 2: moderate diarrhea, loose stools and mild perianal contamination; Grade 3: severe diarrhea, watery stools and accompanied by severe perianal staining (see FIG. 1). It is regarded as effective remission when the diarrhea grading of mice in the group of the compound as shown in Formula I is reduced compared with the average diarrhea grading of mice in the chemotherapeutic agent group.
(§2) The diarrhea grading of mice was observed and recorded every day. At the end of the experiment, the number of mice in the group of the compound as shown in Formula I whose diarrhea grading was lower than that of mice in the chemotherapeutic agent group was recorded. Table 5 lists various animal experiment combinations of chemotherapeutic agents and the compound as shown in Formula I, as well as the corresponding experimental results. (Relative remission rate %=the number of mice in the group of the compound as shown in Formula I whose diarrhea has been effectively relieved/the total number of mice in the group of the compound as shown in Formula I*100%. The establishment rate of diarrhea model in the chemotherapeutic agent group was 50%-80%, that is, about 5-8 of 10 mice developed diarrhea during the experiment, and there were cases of individual mice death or not developing diarrhea.)

[2] = test system: Chemotherapeutic agent-caused diarrhea models of Balb/c mice; assay: Relieving effect on diarrhea caused by a chemotherapeutic agent (Examples 1-201); type: in vivo
Excerpt: Construction of mouse animal models: Chemotherapeutic agent-caused diarrhea models of Balb/c mice were constructed according to the administration mode and frequency of the chemotherapeutic agent as shown in Table 3. After administration for several days, mice developed different extents of diarrhea symptoms (as shown in FIG. 1), which were similar to the conditions in human. Thus, chemotherapeutic agent-caused diarrhea models of mice are very good models to mimic diarrhea in human caused by the chemotherapeutic agent.
Balb/c mice were fed for 1 week, and then divided into groups. The experiment was divided into a control group, a chemotherapeutic agent group, and a group of the compound as shown in Formula I, each of which comprised 10 mice, to perform the administration experiment, for which the administration dosage, mode, time and frequency were shown in Table 3. The control group: being injected or intragastrically administered with the same solvent as that used in the group of the compound as shown in Formula I (the injection mode and time were shown in Table 3), and then being injected or intragastrically administered with the same solvent as that used in the chemotherapeutic agent group (the administration mode was shown in Table 3); the chemotherapeutic agent group: being injected or intragastrically administered with the same solvent as that used in the group of the compound as shown in Formula I (the administration mode and time were shown in Table 3), and then being injected or intragastrically administered with the chemotherapeutic agent (the type, administration mode and dosage were shown in Table 3); the group of the compound as shown in Formula I: being injected or intragastrically administered with the compound as shown in Formula I (the administration mode and time were shown in Table 3), and then being administered with the chemotherapeutic agent (the administration mode and dosage were shown in Table 3).
as §1, with “0:” for “0):”
as §2, with “3” for “5”, “50%-70%,” for “50%-80%,”, “5-7” for “5-8”

CN1CCN(c2ccc(Nc3ncc4cc5n(c4n3)C3(CCCCC3)CNC5=O)nc2)CC1 [Compound I hydrochloride, Trilaciclib dihydrochloride]
Relative remission rate (%) ([1]; Example 373, 2 h before chemotherapeutic agent): 60% | Relative remission rate (%) ([1]; Example 374, 4 h before chemotherapeutic agent): 30% | Relative remission rate (%) ([1]; Example 375, 8 h before chemotherapeutic agent): 10% | Relative remission rate ([2]; Ex 132, Fluorouracil 100 + irinotecan 200 mg/kg intraperitoneal single, compound 150 mg/kg intraperitoneal single 0.5 h before, cycle 8 days): 30% | Relative remission rate ([2]; Ex 133, Fluorouracil 100 + irinotecan 200 mg/kg intraperitoneal single, compound 150 mg/kg intraperitoneal single 6 h before, cycle 8 days): 60% | Relative remission rate ([2]; Ex 134, Fluorouracil 100 + irinotecan 200 mg/kg intraperitoneal single, compound 150 mg/kg intraperitoneal single 12 h before, cycle 8 days): 50% | Relative remission rate ([2]; Ex 161, Fluorouracil 50 + oxaliplatin 5 + irinotecan 50 + tetrahydrofolic acid 90 mg/kg intraperitoneal single, compound 150 mg/kg intraperitoneal single 0.5 h before, cycle 7 days): 70% | Relative remission rate ([2]; Ex 162, Fluorouracil 50 + oxaliplatin 5 + irinotecan 50 + tetrahydrofolic acid 90 mg/kg intraperitoneal single, compound 150 mg/kg intraperitoneal single 12 h before, cycle 7 days): 40% | Relative remission rate ([2]; Ex 194, Topotecan 10 mg/kg intraperitoneal single, compound 100 mg/kg oral single 4 h before, cycle 14 days): 50% | Relative remission rate ([2]; Ex 200, Gemcitabine and carboplatin 120 mg/kg intraperitoneal single, compound 100 mg/kg oral single 4 h before, cycle 8 days): 70%

CC(C)N1CCN(c2ccc(Nc3ncc4cc5n(c4n3)C3(CCCCC3)CNC5=O)nc2)CC1 [Compound IV hydrochloride, Lerociclibdihydrochloride]
Relative remission rate ([2]; Ex 115, Irinotecan (CPT-11) 240 mg/kg intraperitoneal single, compound 100 mg/kg intraperitoneal single 0.5 h before, cycle 11 days): 40% | Relative remission rate ([2]; Ex 116, Irinotecan (CPT-11) 240 mg/kg intraperitoneal single, compound 100 mg/kg intraperitoneal single 4 h before, cycle 11 days): 60% | Relative remission rate ([2]; Ex 117, Irinotecan (CPT-11) 240 mg/kg intraperitoneal single, compound 100 mg/kg intraperitoneal single 12 h before, cycle 11 days): 20% | Relative remission rate ([2]; Ex 188, Fluorouracil 50 + oxaliplatin 5 + irinotecan 50 + tetrahydrofolic acid 90 mg/kg intravenous single, compound 100 mg/kg intraperitoneal single 0.5 h before, cycle 7 days): 70% | Relative remission rate ([2]; Ex 189, Fluorouracil 50 + oxaliplatin 5 + irinotecan 50 + tetrahydrofolic acid 90 mg/kg intravenous single, compound 100 mg/kg intraperitoneal single 12 h before, cycle 7 days): 50% | Relative remission rate ([2]; Ex 201, Gemcitabine 120 + carboplatin 5 mg/kg intravenous single, compound 100 mg/kg oral single 24 h before, cycle 8 days): 40%

Reference: US20240285634A1, “COMPOUND AND METHOD FOR TREATING CHEMOTHERAPY-ASSOCIATED GASTROINTESTINAL SIDE EFFECTS” (ONQUALITY PHARMACEUTICALS CHINA LTD., priority 2021, published 2024)
